Columns and labels:
Test in all cases: relative viability (nuclei count vs DMSO), 5 days (fraction); higher = more cells survive
A-427 = test system: A-427
Procedure, shortened: (§1)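 Cells from lung cancer lines were seeded into 1536-well plates and, one day later, dosed by pin tool. Treatments were either a single drug or a fixed dose of an anchor drug with five library-drug doses (not always all listed) in √10 steps. After 5 days, nuclei were stained in a one-step fixation (final 0.05% Triton X-100, 1% formaldehyde, 1 ug/ml Hoechst) and counted on 4× images, and relative viability is the treated-to-vehicle nuclei ratio, as the median of duplicate plates.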

CAL-12T = test system: CAL-12T
Procedure, shortened: as §1

COR-L 105 = test system: COR-L 105
Procedure, shortened: as §1

EMC-BAC-2 = test system: EMC-BAC-2
Procedure, shortened: as §1

HARA = test system: HARA
Procedure, shortened: as §1

HCC-366 = test system: HCC-366
Procedure, shortened: as §1

HCC-827 = test system: HCC-827
Procedure, shortened: as §1

HOP-62 = test system: HOP-62
Procedure, shortened: as §1

LCLC-103H = test system: LCLC-103H
Procedure, shortened: as §1

NCI-H1355 = test system: NCI-H1355
Procedure, shortened: as §1

NCI-H1395 = test system: NCI-H1395
Procedure, shortened: as §1

NCI-H1437 = test system: NCI-H1437
Procedure, shortened: as §1

NCI-H1755 = test system: NCI-H1755
Procedure, shortened: as §1

NCI-H1792 = test system: NCI-H1792
Procedure, shortened: as §1

NCI-H1915 = test system: NCI-H1915
Procedure, shortened: as §1

NCI-H1975 = test system: NCI-H1975
Procedure, shortened: as §1

NCI-H2009 = test system: NCI-H2009
Procedure, shortened: as §1

NCI-H2228 = test system: NCI-H2228
Procedure, shortened: as §1

NCI-H23 = test system: NCI-H23
Procedure, shortened: as §1

NCI-H460 = test system: NCI-H460
Procedure, shortened: as §1

NCI-H727 = test system: NCI-H727
Procedure, shortened: as §1

SK-LU-1 = test system: SK-LU-1
Procedure, shortened: as §1

SW 1573 = test system: SW 1573
Procedure, shortened: as §1

`NC(=O)Nc1cc(-c2cccc(F)c2)sc1C(=O)N[C@H]1CCCNC1` [AZD7762] + C[C@]1(O)C[C@@H](c2nc(-c3ccc4ccc(-c5ccccc5)nc4c3)c3c(N)nccn32)C1 [Linsitinib] (partner 1 µM) was tested, and the relative viability (A-427; first compound 0.01 µM) was 1.13, the relative viability (A-427; first compound 0.03162 µM) was 1.18 and the relative viability (A-427; first compound 0.1 µM) was 1.22. The relative viability (A-427; first compound 0.3162 µM) was 1.13, the relative viability (A-427; first compound 1 µM) was 0.976 and the relative viability (CAL-12T; first compound 0.01 µM) was 0.91. It also gave a relative viability (CAL-12T; first compound 0.03162 µM) of 0.725, a relative viability (CAL-12T; first compound 0.1 µM) of 0.984 and a relative viability (CAL-12T; first compound 0.3162 µM) of 0.844. It also gave a relative viability (CAL-12T; first compound 1 µM) of 0.288, a relative viability (COR-L 105; first compound 0.01 µM) of 0.855 and a relative viability (COR-L 105; first compound 0.03162 µM) of 0.921. It also gave a relative viability (COR-L 105; first compound 0.1 µM) of 0.748, a relative viability (COR-L 105; first compound 0.3162 µM) of 0.662 and a relative viability (COR-L 105; first compound 1 µM) of 0.393. The relative viability (EMC-BAC-2; first compound 0.01 µM) was 0.795, the relative viability (EMC-BAC-2; first compound 0.03162 µM) was 0.806 and the relative viability (EMC-BAC-2; first compound 0.1 µM) was 0.799. For the same molecule, the relative viability (EMC-BAC-2; first compound 0.3162 µM) was 0.799, the relative viability (EMC-BAC-2; first compound 1 µM) was 0.809 and the relative viability (HARA; first compound 0.01 µM) was 0.961. For the same molecule, the relative viability (HARA; first compound 0.03162 µM) was 0.934, the relative viability (HARA; first compound 0.1 µM) was 0.847 and the relative viability (HARA; first compound 0.3162 µM) was 0.854. For the same molecule, the relative viability (HARA; first compound 1 µM) was 0.617, the relative viability (HCC-366; first compound 0.01 µM) was 0.587 and the relative viability (HCC-366; first compound 0.03162 µM) was 0.666. The relative viability (HCC-366; first compound 0.1 µM) was 0.607, the relative viability (HCC-366; first compound 0.3162 µM) was 0.255 and the relative viability (HCC-366; first compound 1 µM) was 0.0442. The relative viability (HCC-827; first compound 0.01 µM) was 1.06, the relative viability (HCC-827; first compound 0.03162 µM) was 0.994 and the relative viability (HCC-827; first compound 0.1 µM) was 0.922. It also gave a relative viability (HCC-827; first compound 0.3162 µM) of 0.961, a relative viability (HCC-827; first compound 1 µM) of 0.863 and a relative viability (HOP-62; first compound 0.01 µM) of 1.04. It also gave a relative viability (HOP-62; first compound 0.03162 µM) of 1.09, a relative viability (HOP-62; first compound 0.1 µM) of 1.32 and a relative viability (HOP-62; first compound 0.3162 µM) of 0.891. The relative viability (HOP-62; first compound 1 µM) was 0.987, the relative viability (LCLC-103H; first compound 0.01 µM) was 1.1 and the relative viability (LCLC-103H; first compound 0.03162 µM) was 1.09. The relative viability (LCLC-103H; first compound 0.1 µM) was 0.997, the relative viability (LCLC-103H; first compound 0.3162 µM) was 1.11 and the relative viability (LCLC-103H; first compound 1 µM) was 0.738. The relative viability (NCI-H1355; first compound 0.01 µM) was 0.805, the relative viability (NCI-H1355; first compound 0.03162 µM) was 0.811 and the relative viability (NCI-H1355; first compound 0.1 µM) was 0.766. The relative viability (NCI-H1355; first compound 0.3162 µM) was 0.859, the relative viability (NCI-H1355; first compound 1 µM) was 0.762 and the relative viability (NCI-H1395; first compound 0.01 µM) was 1.16. The relative viability (NCI-H1395; first compound 0.03162 µM) was 1.09, the relative viability (NCI-H1395; first compound 0.1 µM) was 0.966 and the relative viability (NCI-H1395; first compound 0.3162 µM) was 0.579. The relative viability (NCI-H1395; first compound 1 µM) was 0.481, the relative viability (NCI-H1437; first compound 0.01 µM) was 1.06 and the relative viability (NCI-H1437; first compound 0.03162 µM) was 0.991. For the same molecule, the relative viability (NCI-H1437; first compound 0.1 µM) was 0.982, the relative viability (NCI-H1437; first compound 0.3162 µM) was 1.04 and the relative viability (NCI-H1437; first compound 1 µM) was 0.86. It also gave a relative viability (NCI-H1755; first compound 0.01 µM) of 1.03, a relative viability (NCI-H1755; first compound 0.03162 µM) of 1.06 and a relative viability (NCI-H1755; first compound 0.1 µM) of 1.06. It also gave a relative viability (NCI-H1755; first compound 0.3162 µM) of 1.03, a relative viability (NCI-H1755; first compound 1 µM) of 0.646 and a relative viability (NCI-H1792; first compound 0.01 µM) of 0.604. It also gave a relative viability (NCI-H1792; first compound 0.03162 µM) of 0.588, a relative viability (NCI-H1792; first compound 0.1 µM) of 0.624 and a relative viability (NCI-H1792; first compound 0.3162 µM) of 0.599. It also gave a relative viability (NCI-H1792; first compound 1 µM) of 0.707, a relative viability (NCI-H1915; first compound 0.01 µM) of 1.09 and a relative viability (NCI-H1915; first compound 0.03162 µM) of 1.1. It also gave a relative viability (NCI-H1915; first compound 0.1 µM) of 1.19, a relative viability (NCI-H1915; first compound 0.3162 µM) of 1.2 and a relative viability (NCI-H1915; first compound 1 µM) of 1.06. The relative viability (NCI-H1975; first compound 0.01 µM) was 1.07, the relative viability (NCI-H1975; first compound 0.03162 µM) was 0.888 and the relative viability (NCI-H1975; first compound 0.1 µM) was 0.881. For the same molecule, the relative viability (NCI-H1975; first compound 0.3162 µM) was 0.681, the relative viability (NCI-H1975; first compound 1 µM) was 0.482 and the relative viability (NCI-H2009; first compound 0.01 µM) was 1.32. It also gave a relative viability (NCI-H2009; first compound 0.03162 µM) of 1.18, a relative viability (NCI-H2009; first compound 0.1 µM) of 1.27 and a relative viability (NCI-H2009; first compound 0.3162 µM) of 1.22. It also gave a relative viability (NCI-H2009; first compound 1 µM) of 0.752, a relative viability (NCI-H2228; first compound 0.01 µM) of 0.792 and a relative viability (NCI-H2228; first compound 0.03162 µM) of 0.478. The relative viability (NCI-H2228; first compound 0.1 µM) was 0.734, the relative viability (NCI-H2228; first compound 0.3162 µM) was 0.289 and the relative viability (NCI-H2228; first compound 1 µM) was 0.242. The relative viability (NCI-H23; first compound 0.01 µM) was 0.659, the relative viability (NCI-H23; first compound 0.03162 µM) was 0.631 and the relative viability (NCI-H23; first compound 0.1 µM) was 0.517. The relative viability (NCI-H23; first compound 0.3162 µM) was 0.517, the relative viability (NCI-H23; first compound 1 µM) was 0.252 and the relative viability (NCI-H460; first compound 0.01 µM) was 0.975. It also gave a relative viability (NCI-H460; first compound 0.03162 µM) of 0.727, a relative viability (NCI-H460; first compound 0.1 µM) of 0.719 and a relative viability (NCI-H460; first compound 0.3162 µM) of 0.135. It also gave a relative viability (NCI-H460; first compound 1 µM) of 0.0126, a relative viability (NCI-H727; first compound 0.01 µM) of 0.282 and a relative viability (NCI-H727; first compound 0.03162 µM) of 0.333. The relative viability (NCI-H727; first compound 0.1 µM) was 0.311, the relative viability (NCI-H727; first compound 0.3162 µM) was 0.219 and the relative viability (NCI-H727; first compound 1 µM) was 0.118. The relative viability (SK-LU-1; first compound 0.01 µM) was 1.1, the relative viability (SK-LU-1; first compound 0.03162 µM) was 0.804 and the relative viability (SK-LU-1; first compound 0.1 µM) was 0.358. For the same molecule, the relative viability (SK-LU-1; first compound 0.3162 µM) was 0.218, the relative viability (SK-LU-1; first compound 1 µM) was 0.251 and the relative viability (SW 1573; first compound 0.01 µM) was 0.843. It also gave a relative viability (SW 1573; first compound 0.03162 µM) of 0.989, a relative viability (SW 1573; first compound 0.1 µM) of 0.99 and a relative viability (SW 1573; first compound 0.3162 µM) of 0.891. It also gave a relative viability (SW 1573; first compound 1 µM) of 0.752.

— the supplement of paper PMC10307832
